IC50 data for twelve compounds are collected here from patent US12486267B2, “Imidazo[1,2-A]pyridine and [1,2,4]triazolo[1,5-A]pyridine derivatives as TLR9 inhibitors for the treatment of fibrosis” (BRISTOL-MYERS SQUIBB COMPANY, priority 2020, dated 2025).

What all share (format): cell-based
Experiment [1] addresses T1, human TLR8 (Homo sapiens, UniProt Q9NR97).
T1 sequence (Q9NR97 27-1041): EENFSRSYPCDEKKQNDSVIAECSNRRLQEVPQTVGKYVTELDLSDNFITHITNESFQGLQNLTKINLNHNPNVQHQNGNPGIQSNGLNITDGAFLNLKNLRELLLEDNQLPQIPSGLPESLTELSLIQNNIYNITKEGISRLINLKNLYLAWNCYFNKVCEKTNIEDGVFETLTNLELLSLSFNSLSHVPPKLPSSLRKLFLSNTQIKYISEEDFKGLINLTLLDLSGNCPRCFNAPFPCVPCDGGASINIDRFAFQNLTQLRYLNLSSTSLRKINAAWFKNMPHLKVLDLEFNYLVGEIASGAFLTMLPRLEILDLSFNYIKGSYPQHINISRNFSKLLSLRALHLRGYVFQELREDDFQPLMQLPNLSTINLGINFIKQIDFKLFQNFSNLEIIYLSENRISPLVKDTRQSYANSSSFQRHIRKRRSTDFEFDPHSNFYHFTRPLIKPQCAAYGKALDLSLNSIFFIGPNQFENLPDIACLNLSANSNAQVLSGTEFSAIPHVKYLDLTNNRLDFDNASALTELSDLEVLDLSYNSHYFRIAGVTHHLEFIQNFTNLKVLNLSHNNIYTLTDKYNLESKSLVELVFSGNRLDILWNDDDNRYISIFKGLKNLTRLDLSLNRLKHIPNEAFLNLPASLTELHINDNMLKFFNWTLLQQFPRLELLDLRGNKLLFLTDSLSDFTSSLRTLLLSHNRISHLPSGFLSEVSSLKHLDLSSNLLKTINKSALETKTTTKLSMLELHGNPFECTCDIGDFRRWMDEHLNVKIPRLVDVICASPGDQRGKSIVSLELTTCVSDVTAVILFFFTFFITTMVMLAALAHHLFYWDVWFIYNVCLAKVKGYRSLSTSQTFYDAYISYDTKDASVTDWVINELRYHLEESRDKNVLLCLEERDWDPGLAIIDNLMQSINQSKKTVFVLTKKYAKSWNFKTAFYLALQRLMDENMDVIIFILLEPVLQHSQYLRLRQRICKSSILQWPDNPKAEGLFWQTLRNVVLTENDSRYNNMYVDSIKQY
Nature of the experiment: TLR8 inhibition reporter assay (HEK-Blue cells, SEAP reporter). The note with it: HEK-Blue cells overexpressing human TLR8; stimulated with R848 15.9 μM; 22 hour incubation; SEAP readout. Summed up: (§1)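 HEK-Blue cells with an NF-κB/AP-1-driven SEAP reporter were pre-treated 30 min at room temperature with compound (0.05 nM–50 μM), then stimulated with gardiquimod 7.5 μM (TLR7), R848 15.9 μM (TLR8) or ODN2006 5 nM (TLR9). After 22 h at 37 °C, SEAP was read; % inhibition was referenced to agonist+DMSO and known-inhibitor wells.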
For orientation: A reporter such as luciferase makes a cellular process visible.

The target of experiment [2] is T2, human TLR9 (Homo sapiens, UniProt Q9NR96).
T2 sequence (Q9NR96 26-1032): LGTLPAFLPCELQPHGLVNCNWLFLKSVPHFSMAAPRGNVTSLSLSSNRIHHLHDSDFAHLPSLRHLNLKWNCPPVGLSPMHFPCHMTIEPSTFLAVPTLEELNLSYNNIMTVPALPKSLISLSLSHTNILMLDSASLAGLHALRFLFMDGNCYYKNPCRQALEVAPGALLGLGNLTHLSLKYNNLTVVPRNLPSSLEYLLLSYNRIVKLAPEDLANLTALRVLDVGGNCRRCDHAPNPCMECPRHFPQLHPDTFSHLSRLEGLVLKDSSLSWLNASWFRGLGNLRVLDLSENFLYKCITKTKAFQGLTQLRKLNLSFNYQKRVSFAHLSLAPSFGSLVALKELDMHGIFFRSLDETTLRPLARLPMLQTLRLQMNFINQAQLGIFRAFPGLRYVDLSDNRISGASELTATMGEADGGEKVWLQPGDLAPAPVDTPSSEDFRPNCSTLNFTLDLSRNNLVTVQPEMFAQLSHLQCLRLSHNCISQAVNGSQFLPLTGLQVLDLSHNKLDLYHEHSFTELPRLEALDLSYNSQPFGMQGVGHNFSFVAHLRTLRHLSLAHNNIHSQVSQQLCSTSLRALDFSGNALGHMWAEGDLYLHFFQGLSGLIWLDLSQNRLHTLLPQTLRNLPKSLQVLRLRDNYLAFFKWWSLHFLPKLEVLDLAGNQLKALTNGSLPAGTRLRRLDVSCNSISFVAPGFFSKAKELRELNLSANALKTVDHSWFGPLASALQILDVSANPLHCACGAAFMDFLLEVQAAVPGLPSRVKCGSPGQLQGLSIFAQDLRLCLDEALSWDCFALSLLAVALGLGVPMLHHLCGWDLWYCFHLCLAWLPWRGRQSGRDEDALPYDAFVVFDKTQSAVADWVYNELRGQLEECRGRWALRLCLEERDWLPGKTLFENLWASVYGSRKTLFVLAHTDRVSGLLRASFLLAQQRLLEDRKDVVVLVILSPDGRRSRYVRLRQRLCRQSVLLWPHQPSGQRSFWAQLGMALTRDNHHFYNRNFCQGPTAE
Nature of the experiment: TLR9 inhibition reporter assay (HEK-Blue cells, SEAP reporter). The settings on record: HEK-Blue cells overexpressing human TLR9; stimulated with ODN2006 5 nM; 22 hour incubation; SEAP readout. A digest of the protocol: as §1

The target in experiment [3] is T3, human TLR7 (Homo sapiens, UniProt Q9NYK1).
T3 sequence (Q9NYK1 27-1049): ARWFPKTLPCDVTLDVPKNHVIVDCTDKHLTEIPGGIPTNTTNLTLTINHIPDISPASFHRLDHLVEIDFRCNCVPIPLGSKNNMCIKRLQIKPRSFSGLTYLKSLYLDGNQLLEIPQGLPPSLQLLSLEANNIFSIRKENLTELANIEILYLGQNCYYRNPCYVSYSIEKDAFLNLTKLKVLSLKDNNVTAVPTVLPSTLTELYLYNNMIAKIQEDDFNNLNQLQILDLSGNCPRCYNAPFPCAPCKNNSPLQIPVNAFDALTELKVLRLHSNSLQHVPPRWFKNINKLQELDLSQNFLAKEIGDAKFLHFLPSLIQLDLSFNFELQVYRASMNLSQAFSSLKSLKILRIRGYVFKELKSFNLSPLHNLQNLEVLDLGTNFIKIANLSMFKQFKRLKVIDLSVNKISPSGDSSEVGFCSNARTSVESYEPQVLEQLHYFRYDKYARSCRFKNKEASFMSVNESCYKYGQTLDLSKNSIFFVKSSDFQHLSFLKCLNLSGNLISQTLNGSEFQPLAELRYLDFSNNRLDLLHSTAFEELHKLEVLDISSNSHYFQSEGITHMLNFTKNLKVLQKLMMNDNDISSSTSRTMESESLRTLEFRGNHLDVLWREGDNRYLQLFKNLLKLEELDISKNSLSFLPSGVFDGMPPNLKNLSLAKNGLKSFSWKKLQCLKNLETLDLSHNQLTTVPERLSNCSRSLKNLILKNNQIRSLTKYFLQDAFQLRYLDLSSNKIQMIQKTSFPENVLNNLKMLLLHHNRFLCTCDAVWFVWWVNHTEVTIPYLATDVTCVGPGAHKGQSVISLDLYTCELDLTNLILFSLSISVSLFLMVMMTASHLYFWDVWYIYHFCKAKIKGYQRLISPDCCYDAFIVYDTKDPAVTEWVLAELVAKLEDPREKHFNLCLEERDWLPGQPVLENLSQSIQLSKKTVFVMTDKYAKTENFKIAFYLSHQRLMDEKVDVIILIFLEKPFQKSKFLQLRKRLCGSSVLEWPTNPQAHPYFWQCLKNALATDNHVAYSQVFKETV
As to the kind of experiment: TLR7 inhibition reporter assay (HEK-Blue cells, SEAP reporter). The note with it: HEK-Blue cells overexpressing human TLR7; stimulated with gardiquimod 7.5 μM; 22 hour incubation; SEAP readout. Summed up: as §1

Regarding `COc1ccc(-c2cn3c(n2)CCC(C2CCN(C4CCN(CC(C)C)CC4)CC2)C3)cc1OC` (racemic) [Example 31, 2-(3,4-dimethoxyphenyl)-6-(1′-isobutyl-[1,4′-bipiperidin]-4-yl)-5,6,7,8-tetrahydroimidazo[1,2-a]pyridine], the IC50 (usually the point on the concentration scale where inhibition reaches its midpoint) is more than 50 µM in experiment [1], 0.026 µM in experiment [2] and 4.6 µM in experiment [3].
For `CS(=O)(=O)c1ccc(-c2cn3cc(C4CCN(C5CCN(C6CC6)CC5)CC4)cc(F)c3n2)cc1` [Example 108, 6-(1′-cyclopropyl-[1,4′-bipiperidin]-4-yl)-8-fluoro-2-(4-(methylsulfonyl)phenyl) imidazo[1,2-a]pyridine], the IC50 in experiment [1] is more than 50 µM; in experiment [2], 0.313 µM; in experiment [3], 29.5 µM.
Regarding `Cc1cc(-c2ccc(N3CCN(C4COC4)CC3)cc2)cn2cc(-c3ccc(S(C)(=O)=O)cc3)nc12` [Example 103, 8-methyl-2-(4-(methylsulfonyl)phenyl)-6-(4-(4-(oxetan-3-yl)piperazin-1-yl)phenyl)imidazo[1,2-a]pyridine], the IC50 in experiment [1] is more than 50 µM; in experiment [2], 9.2 µM; in experiment [3], 38.5 µM.
On to `CS(=O)(=O)c1ccc(-c2cn3cc(C4CCN(C5CC6CCC(C5)N6C5CCOCC5)CC4)cc(F)c3n2)cc1` (single isomer, unassigned) [Example 121, 8-fluoro-2-(4-(methylsulfonyl)phenyl)-6-(1-(8-(tetrahydro-2H-pyran-4-yl)-8-azabicyclo[3.2.1]octan-3-yl)piperidin-4-yl) imidazo[1,2-a]pyridine], for which the half-inhibitory concentration (IC50) in experiment [1] was more than 50 µM; in experiment [2], 0.011 µM; in experiment [3] it was 3.4 µM.
As to `Cc1cc(-c2ccc(N3CCN(CC4CCC4)CC3)cc2)cn2cc(-c3ccc(S(C)(=O)=O)cc3)nc12` [Example 101, 6-(4-(4-(cyclobutylmethyl)piperazin-1-yl)phenyl)-8-methyl-2-(4-(methylsulfonyl)phenyl)imidazo[1,2-a]pyridine], the 50% inhibitory concentration (IC50) in experiment [1] was 14 µM; in experiment [2], 0.803 µM; in experiment [3] it was 18.4 µM.
As for `COc1ccc(-c2cn3c(n2)CCC(C2CCN(C4CCN(C(C)C)CC4)CC2)C3)cc1OC` (racemic) [Example 34, 2-(3,4-dimethoxyphenyl)-6-(1′-isopropyl-[1,4′-bipiperidin]-4-yl)-5,6,7,8-tetrahydroimidazo[1,2-a]pyridine], the IC50 in experiment [1] is more than 50 µM; in experiment [2], 0.037 µM; in experiment [3] it was 12 µM.
With `CC(C)CN1CCC(N2CCC(c3cn4cc(-c5ccc(S(C)(=O)=O)cc5)nc4cc3F)CC2)CC1` [Example 123, 7-fluoro-6-(1′-isobutyl-[1,4′-bipiperidin]-4-yl)-2-(4-(methylsulfonyl)phenyl) imidazo[1,2-a]pyridine], the results for the IC50 in experiment [1], in experiment [2] and in experiment [3] were more than 50 µM, 0.496 µM and more than 50 µM, respectively.
As to `COc1ccc(-c2cn3cc(C4CCN(C5CC6CCC(C5)N6C(C)C)CC4)cc(C)c3n2)cc1OC` (single isomer, unassigned) [Example 23, 2-(3,4-dimethoxyphenyl)-6-(1-(8-isopropyl-8-azabicyclo[3.2.1]octan-3-yl)piperidin-4-yl)-8-methylimidazo[1,2-a]pyridine], the IC50 is more than 50 µM in experiment [1], 0.242 µM in experiment [2] and 31 µM in experiment [3].
In the case of `CC(C)N1CCC(N2CCC(c3cc(F)c4nc(-c5ccc(S(C)(=O)=O)cc5)cn4c3)CC2)CC1` [Example 67, 8-fluoro-6-(1′-isopropyl-[1,4′-bipiperidin]-4-yl)-2-(4-(methylsulfonyl)phenyl) imidazo[1,2-a]pyridine], the IC50 in experiment [1] is more than 50 µM; in experiment [2], 0.043 µM; in experiment [3] it was 19.2 µM.
Take `Cc1cc(C2CCN(C3CC4CCC(C3)N4CC3CCC3)CC2)cn2cc(-c3ccc(S(C)(=O)=O)cc3)nc12` (single isomer, unassigned) [Example 89, 6-(1-(8-(cyclobutylmethyl)-8-azabicyclo[3.2.1]octan-3-yl)piperidin-4-yl)-8-methyl-2-(4-(methylsulfonyl)phenyl)imidazo[1,2-a]pyridine]: the IC50 in experiment [1] is more than 50 µM; in experiment [2] it was 0.329 µM; in experiment [3], 2.2 µM.
For `COc1ccc(-c2cn3cc(-c4ccc(N5CCN(C6COC6)CC5)cc4)cc(C)c3n2)cc1OC` [Example 64, 2-(3,4-dimethoxyphenyl)-8-methyl-6-(4-(4-(oxetan-3-yl)piperazin-1-yl)phenyl) imidazo[1,2-a]pyridine], the IC50 is more than 25 µM in experiment [1], 2.38 µM in experiment [2] and more than 25 µM in experiment [3].
As to `COc1ccc(-c2cn3cc(C4CCN(C5CCN(C6CC6)CC5)CC4)cc(C)c3n2)cc1F` [Example 4, 6-(1′-cyclopropyl-[1,4′-bipiperidin]-4-yl)-2-(3-fluoro-4-methoxyphenyl)-8-methylimidazo[1,2-a]pyridine], the IC50 is more than 50 µM in experiment [1], 0.146 µM in experiment [2] and 5.5 µM in experiment [3].
